Data as given in US6337348B1, “Oxy-vanadium (iv) complexes having spermicidal activity” (Parker Hughes Institute, priority 1998, dated 2002).

Columns and labels:
Format in all cases: cell-based
human sperm [1] = assay: Kinetics of sperm immobilization (timed CASA); conditions: for T½ of sperm immobilization (time for 50% motility loss): 200 μM, 37° C.
Method: To test the effect of duration of incubation on sperm immobilization in the presence of oxovanadium (IV) complexes, a motile fraction of sperm 10^7/ml) was incubated at 37° C. in 1 ml of BWW−0.3% BSA in the presence of 200 μM each of the complexes or 0.2% DMSO alone. At timed intervals (every 5 and 10 minutes) aliquots (4 μl) were transferred to two 20 μm Microcell (Conception Technologies) chambers, and sperm motility was assessed by CASA.
(§1) For CASA, 4 μl each of sperm suspension was loaded into two 20 μm Microcell chambers placed onto a counting chamber at 37° C. At least 5-8 fields per chamber were scanned for analysis using a Hamilton Thorne Integrated Visual Optical System (IVOS) version 10 instrument (Hamilton Thorne Research Inc., Danvers, Mass.). Each field was recorded for 30 seconds. The Hamilton Thorne computer calibrations were set at 30 frames at a frame rate of 30 images/seconds. Other settings were as follows: minimum contrast 8; minimum size 6; low-size gate, 1.0; high-size gate,2.9; low-intensity gate, 0.6; high-intensity gate, 1.4; phase-contrast illumination; low path velocity at 10 μm/seconds and threshold straightness at 80%; magnification factor, 1.95. The performance of the analyzer was periodically checked using the playback function.

human sperm [2] = assay: FITC-Annexin V surface binding flow cytometry; conditions: 100 μM, 12 hours, 37° C.
Method: In order to examine the expression of phosphatidyl serine on the sperm surface following oxovanadium (IV) complex exposure, surface binding of FITC-Annexin V was evaluated by flow cyotometry as described in Vermes et al., 1995, J. Immunol. Meth., […]:39-51. One ml aliquots of highly motile sperm (10^7) in triplicate were incubated in BWW−0.3% BSA at 37° C. for 12 hours with and without 100 μM of each of the oxovanadium (IV) complexes VO(phen), VO(phen)2, VO(Me2—phen), VO(Me2—phen)2, VO(Cl—phen), VO(Cl—phen)2, VO(bipy), VO(bipy)2, VO(Me2—bipy), VO(Me2—bipy)2, and VO(Br,OH—acph)2 in 0.1% DMSO. After exposure to these complexes, sperm were washed with 1% Tyrode's salt solution containing 1% BSA (1% TBSA), and the pellets were resuspended in the same medium. The sperm suspension was reacted for 30 minutes at room temperature with 6 μg/ml of FITC-conjugated recombinant human Annexin V (Caltag Laboratories, San Francisco, Calif.). After two washes in Tyrode's salt solution, sperm were resuspended in 1% TBSA containing 1 μg/ml propidium iodide (PI) and analyzed for surface-bound Annexin V and PI-permeability by quantitative flow cytometry using an argon laser for excitation of fluorescence. Annexin V and PI binding were simultaneously measured in oxovanadium (IV) complex-exposed and control sperm as described previously (de Lamirande et al., 1993, Fertil Seril 59:1291-1295). The percentages of sperm positive for Annexin V and PI were determined using the cutoff signals for membrane-intact motile sperm. Two separate experiments were performed to assess the surface expression of phosphatidyl serine following exposure of sperm to oxovanadium (IV) complexes.

human sperm [3] = assay: Sperm immobilization assay (SIA), motility by CASA; conditions: for EC50: read-out: EC50 (concentration that decreases the proportion of motile sperm by 50%), 3 hours incubation at 37° C., BWW-0.3% BSA, serial 2-fold dilutions 250 μM to 1.9 μM, mean of two experiments
Method: To evaluate the spermicidal effects of complexes of oxovanadium (IV), VO(phen), VO(phen)2, VO(Me2—phen), VO(Me2—phen)2, VO(Cl—phen), VO(Cl—phen)2], VO(bipy), VO(bipy)2, VO(Me2—bipy), VO(Me2—bipy)2, and VO(Br,OH—acph)2, a highly motile fraction of pooled donor sperm (N=5) was prepared by discontinuous (90−45%). Percoll gradient (Conception Technologies, San Diego, Calif.) centrifugation and the “swim-up” method as described previously (Aitken et al., 1989, Biol. Reprod. 40:183-197). All donor specimens were obtained after informed consent and in compliance with the guidelines of the Hughes Institutional Review Board. Motile sperm (≳10×10^6/ml) were suspended in 1 ml of Biggers, Whitten, and Whittingham's medium (BWW) containing 0.3% BSA (fraction V; Sigma Chemical Co., St. Louis, Mo.) in the presence and absence of serial 2-fold dilutions of test substance (250 μM−1.9 μM) in 0.25% dimethyl sulfoxide (DMSO). For each experiment, fresh stock solutions (100 mM) of vanadium compounds were prepared in DMSO. A corresponding volume of DMSO (0.25%) was added to control sperm suspension. After 3 hours of incubation at 37° C., the percentage of motile sperm was evaluated by computer-assisted sperm motion analysis (CASA) as described previously (Aitken et al., 1989, Supra). The percentages of motilities were compared with those of sham-treated control suspensions of motile sperm.
as §1
Results for the various numerical sperm functional parameters are presented as mean±standard deviation (SD) values. Comparison between oxovanadium (IV) complex-treated and control sperm relative to sperm motility parameters and apoptosis were performed using paired, two-tailed Student's T-test. A p value of <0.05 was considered significant.

T½ of sperm immobilization (time for 50% motility loss) (human sperm [1]) [min] | Annexin V positive sperm (%) (human sperm [2]) | Annexin V positive sperm (%) (human sperm [2]; listed as VO(Cl—phen)2) | EC50 (human sperm [3]) [µM] | Compound | time of exposure to complete sperm motility loss (human sperm [1]) [min] | fold more potent than N-9 (spermicidal activity) (human sperm [3]; identical experimental conditions) [fold]
7.3 | 99 | 99 | 5.5 | Clc1cc2cccnc2c2ncccc12.Clc1cc2cccnc2c2ncccc12.O.O=S(=O)([O-])[O-].[O]=[V+2] [VO(Cl-phen)2, (aqua)bis(5-chloro-1,10-phenanthroline)oxovanadium (IV) sulfate] | ≤ 10 | 14
– | 90 | – | 39.1 | Clc1cc2cccnc2c2ncccc12.O.O.O=S(=O)([O-])[O-].[O]=[V+2] [VO(Cl-phen), (diaqua)(5-chloro-1,10-phenanthroline)oxovanadium (IV) sulfate] | – | –
– | 17 | – | 47.9 | Cc1ccnc2c1ccc1c(C)ccnc12.Cc1ccnc2c1ccc1c(C)ccnc12.O.O=S(=O)([O-])[O-].[O-2].[V+4] [VO(Me2-phen)2, (aqua)bis(4,7-dimethyl-1,10-phenanthroline)oxovanadium (IV) sulfate] | – | –
– | 96 | – | 20.5 | Cc1ccnc2c1ccc1c(C)ccnc12.O.O.O=S(=O)([O-])[O-].[O]=[V+2] [VO(Me2-phen), (diaqua)(4,7-dimethyl-1,10-phenanthroline)oxovanadium (IV) sulfate] | – | –
– | 26 | – | 35.3 | O.O=S(=O)([O-])[O-].[O-2].[V+4].c1ccc(-c2ccccn2)nc1.c1ccc(-c2ccccn2)nc1 [VO(bipy)2, (aqua)bis(2,2′-bipyridyl)oxovanadium (IV) sulfate] | – | –
– | 36 | – | 118 | O.O.O=S(=O)([O-])[O-].[O]=[V+2].c1ccc(-c2ccccn2)nc1 [VO(bipy), (diaqua)(2,2′-bipyridyl)oxovanadium (IV) sulfate] | – | –
– | 98 | – | 6.5 | O.O=S(=O)([O-])[O-].[O]=[V+2].c1cnc2c(c1)ccc1cccnc12.c1cnc2c(c1)ccc1cccnc12 [VO(phen)2, (aqua)bis(1,10-phenanthroline)oxovanadium (IV) sulfate] | – | –
– | 97 | – | 37 | O.O.O=S(=O)([O-])[O-].[O]=[V+2].c1cnc2c(c1)ccc1cccnc12 [VO(phen), (diaqua)(1,10-phenanthroline)oxovanadium (IV) sulfate] | – | –
– | 78 | – | 72.5 | (aqua)bis(4,4′-dimethyl-2,2′-bipyridyl)oxovanadium (IV) sulfate [VO(Me2-bipy)2] | – | –
– | 47 | – | 83 | (diaqua)(4,4′-dimethyl-2,2′-bipyridyl)oxovanadium (IV) sulfate [VO(Me2-bipy)] | – | –
0.633 | 95 | – | 13.4 | bis(5′-bromo-2′-hydroxyacetophenone)oxovanadium (IV) [VO(Br,OH-acph)2] | ≤ 2 | –
